From PubChem BioAssay (NCI)
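Growth conditions: 96-well plates. Treatment: test compound, 48 hours, 5 concentrations. Analysis: linear interpolation between bracketing concentrations; unreached endpoints set to highest concentration. TGI marks complete inhibition of growth.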

What was measured:
Assay in all cases: DTP human tumour cell line panel, 48 h
[1] = system: HT29 colon
[2] = system: IGROV1 ovarian
[3] = system: ACHN renal
[4] = system: COLO 205 colon
[5] = system: SW-620 colon
[6] = system: SF-295 CNS
[7] = system: NCI-H460 lung
[8] = system: HCC-2998 colon
[9] = system: M14 melanoma
[10] = system: NCI-H522 lung
[11] = system: U251 CNS
[12] = system: SF-539 CNS
[13] = system: SR leukemia
[14] = system: KM12 colon
[15] = system: UACC-257 melanoma
[16] = system: RXF 393 renal
[17] = system: HCT-15 colon
[18] = system: KM20L2 colon
[19] = system: DLD-1 colon
[20] = system: HL-60(TB) leukemia
[21] = system: EKVX NSCLC
[22] = system: SK-OV-3 ovarian
[23] = system: 786-0 renal
[24] = system: HCT-116 colon
[25] = system: HOP-62 NSCLC
[26] = system: K-562 leukemia
[27] = system: DMS 273 small cell lung
[28] = system: SK-MEL-28 melanoma
[29] = system: NCI-H226 lung
[30] = system: TK-10 renal
[31] = system: NCI-H23 lung
[32] = system: MOLT-4 leukemia
[33] = system: CCRF-CEM leukemia
[34] = system: SK-MEL-2 melanoma
[35] = system: SF-268 CNS
[36] = system: RPMI-8226 leukemia
[37] = system: LOX IMVI melanoma
[38] = system: A549 NSCLC
[39] = system: OVCAR-4 ovarian
[40] = system: LXFL 529 NSCLC
[41] = system: DMS 114 small cell lung
[42] = system: OVCAR-3 ovarian
[43] = system: OVCAR-5 ovarian
[44] = system: XF 498 CNS
[45] = system: CAKI-1 renal
[46] = system: OVCAR-8 ovarian
[47] = system: SNB-19 CNS
[48] = system: MALME-3M melanoma
[49] = system: UO-31 renal
[50] = system: SN12C renal
[51] = system: SNB-75 CNS
[52] = system: HOP-18 NSCLC
[53] = system: M19-MEL melanoma
[54] = system: HOP-92 NSCLC
[55] = system: SK-MEL-5 melanoma
[56] = system: SNB-78 CNS
[57] = system: UACC-62 melanoma

`CSCCOC(=O)C(=[N+]=[N-])c1ccc([N+](=O)[O-])cc1` was tested, and the TGI [1] was > 100 µM, the TGI [2] was > 100 µM and the TGI [3] was > 100 µM. The TGI [4] was > 100 µM, the TGI [5] was > 100 µM and the TGI [6] was > 100 µM. The TGI [7] was > 100 µM, the TGI [8] was > 100 µM and the TGI [9] was > 100 µM. For the same molecule, the TGI [10] was > 100 µM, the TGI [11] was > 100 µM and the TGI [12] was > 100 µM. The TGI [13] was > 100 µM, the TGI [14] was > 100 µM and the TGI [15] was > 100 µM. The TGI [16] was > 100 µM, the TGI [17] was > 100 µM and the TGI [18] was > 100 µM. For the same molecule, the TGI [19] was > 100 µM, the TGI [20] was > 100 µM and the TGI [21] was > 100 µM. The TGI [22] was > 100 µM, the TGI [23] was > 100 µM and the TGI [24] was > 100 µM. For the same molecule, the TGI [25] was > 100 µM, the TGI [26] was > 100 µM and the TGI [27] was > 100 µM. For the same molecule, the TGI [28] was > 100 µM, the TGI [29] was > 100 µM and the TGI [30] was > 100 µM. The TGI [31] was > 100 µM, the TGI [32] was > 100 µM and the TGI [33] was > 100 µM. For the same molecule, the TGI [34] was > 100 µM, the TGI [35] was > 100 µM and the TGI [36] was > 100 µM. The TGI [37] was > 100 µM, the TGI [38] was > 100 µM and the TGI [39] was > 100 µM. For the same molecule, the TGI [40] was > 100 µM, the TGI [41] was > 100 µM and the TGI [42] was > 100 µM. The TGI [43] was > 100 µM, the TGI [44] was > 100 µM and the TGI [45] was > 100 µM. The TGI [46] was > 100 µM, the TGI [47] was > 100 µM and the TGI [48] was > 100 µM. For the same molecule, the TGI [49] was > 100 µM, the TGI [50] was > 100 µM and the TGI [51] was > 100 µM.
With `COc1cc(/C=C\c2cccnc2)cc(OC)c1OC` the TGI [1] was > 100 µM, the TGI [2] was > 100 µM and the TGI [3] was > 100 µM. For the same molecule, the TGI [4] was 69 µM, the TGI [5] was > 100 µM and the TGI [6] was > 100 µM. The TGI [7] was > 100 µM, the TGI [9] was 97.2 µM and the TGI [10] was 96.3 µM. For the same molecule, the TGI [52] was > 100 µM, the TGI [11] was > 100 µM and the TGI [53] was > 100 µM. For the same molecule, the TGI [12] was > 100 µM, the TGI [54] was > 100 µM and the TGI [14] was > 100 µM. The TGI [15] was > 100 µM, the TGI [16] was 88.5 µM and the TGI [55] was 40.8 µM. The TGI [17] was > 100 µM, the TGI [18] was > 100 µM and the TGI [19] was > 100 µM. For the same molecule, the TGI [20] was 48 µM, the TGI [21] was > 100 µM and the TGI [23] was > 100 µM. The TGI [24] was > 100 µM, the TGI [25] was > 100 µM and the TGI [26] was > 100 µM. The TGI [56] was > 100 µM, the TGI [27] was > 100 µM and the TGI [28] was > 100 µM. The TGI [29] was > 100 µM, the TGI [30] was > 100 µM and the TGI [31] was > 100 µM. The TGI [32] was 43.1 µM, the TGI [33] was > 100 µM and the TGI [35] was > 100 µM. The TGI [36] was 47.7 µM, the TGI [37] was 71.3 µM and the TGI [38] was > 100 µM. For the same molecule, the TGI [39] was > 100 µM, the TGI [40] was > 100 µM and the TGI [41] was > 100 µM. The TGI [42] was > 100 µM, the TGI [43] was > 100 µM and the TGI [44] was > 100 µM. For the same molecule, the TGI [45] was > 100 µM, the TGI [57] was > 100 µM and the TGI [46] was > 100 µM. The TGI [47] was > 100 µM, the TGI [48] was > 100 µM and the TGI [49] was > 100 µM. For the same molecule, the TGI [50] was > 100 µM and the TGI [51] was > 100 µM.
